Structures can show the parent of a compound that is named as a salt.
Biological target: kinase domain of IRE1 alpha (His-tagged kinase dead construct KR, AA G547-L977, D688N) (Homo sapiens (Human), UniProt O75460, D688N)
Test: IRE1α TR-FRET competition binding assay
Conditions: competition with Kinase Tracer 236, 0.1 μM; one hour at room temperature
In short: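 Compound displacement of an ATP-site fluorescent tracer (0.1 μM final) measured by TR-FRET after 1 h at room temperature. Protein, a His-tagged D688N kinase/RNase construct from Sf9 cells (0.006 μM final), was pre-bound 1 h at 4° C to Eu anti-His antibody (0.002 μM) in pH 7.5 HEPES buffer.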

Sequence of kinase domain of IRE1 alpha (His-tagged kinase dead construct KR, AA G547-L977, D688N) (O75460 547-977 D688N): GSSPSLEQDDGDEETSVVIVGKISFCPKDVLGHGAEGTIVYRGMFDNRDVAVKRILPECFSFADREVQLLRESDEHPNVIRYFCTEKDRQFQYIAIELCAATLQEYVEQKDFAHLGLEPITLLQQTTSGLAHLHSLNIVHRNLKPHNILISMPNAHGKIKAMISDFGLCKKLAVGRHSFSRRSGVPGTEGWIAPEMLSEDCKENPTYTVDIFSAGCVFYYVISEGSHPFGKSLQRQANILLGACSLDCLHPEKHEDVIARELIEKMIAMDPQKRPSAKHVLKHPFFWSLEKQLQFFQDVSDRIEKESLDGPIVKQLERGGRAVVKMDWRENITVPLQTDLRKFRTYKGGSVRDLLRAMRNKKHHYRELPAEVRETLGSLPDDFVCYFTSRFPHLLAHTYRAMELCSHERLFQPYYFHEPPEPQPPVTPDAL

Compound	IC50 [nM]
O=S(=O)(Cc1ccccc1)Nc1c(F)cc(Oc2ncccc2-c2ccnc(NC3CNCC(C(F)F)C3)n2)c(F)c1F (single isomer, unassigned) [Compound 303, N-(4-((3-(2-((5-(Difluoromethyl)piperidin-3-yl)amino)pyrimidin-4-yl)pyridin-2-yl)oxy)-2,3,6-trifluorophenyl)-1-phenylmethanesulfonamide]	35
CCCS(=O)(=O)Nc1cc(F)c(Oc2ncccc2-c2ccnc(N[C@H]3CC[C@H](N)CC3)n2)c(Cl)c1 [Compound 121, N-(4-((3-(2-(((1r,4r)-4-Aminocyclohexyl)amino)pyrimidin-4-yl)pyridin-2-yl)oxy)-3-chloro-5-fluorophenyl)propane-1-sulfonamide hydrochloride]	26
Cc1cc(Oc2ncccc2-c2ccnc(N[C@H]3CCCNC3)n2)c(C)cc1NS(=O)(=O)c1ccccc1Cl [Compound 125, (S)-2-chloro-N-(2,5-dimethyl-4-((3-(2-(piperidin-3-ylamino)pyrimidin-4-yl)pyridin-2-yl)oxy)phenyl)benzenesulfonamide]	27
O=S(=O)(CC1(F)CC1)Nc1ccc(Oc2ncccc2-c2ccnc(N[C@H]3CCCNC3)n2)c(F)c1F [Compound 188, (S)-N-(2,3-difluoro-4-((3-(2-(piperidin-3-ylamino)pyrimidin-4-yl)pyridin-2-yl)oxy)phenyl)-1-(1-fluorocyclopropyl)methanesulfonamide]	11
O=S(=O)(Cc1ccccc1)Nc1ccc(Oc2ncccc2-c2ccnc(N[C@H]3CCCNC3)n2)c(F)c1 [Compound 159, (S)-N-(3-fluoro-4-((3-(2-(piperidin-3-ylamino)pyrimidin-4-yl)pyridin-2-yl)oxy)phenyl)-1-phenylmethanesulfonamide]	11
O=S(=O)(Nc1ccc(Cl)c(Oc2ncccc2-c2ccnc(N[C@H]3CCCNC3)n2)c1F)c1ccccc1Cl [Compound 137, (S)-2-Chloro-N-(4-chloro-2-fluoro-3-((3-(2-(piperidin-3-ylamino)pyrimidin-4-yl)pyridin-2-yl)oxy)phenyl)benzenesulfonamide hydrochloride]	7.4
O=S(=O)(Cc1ccc(C2CC2)cc1)Nc1c(F)cc(Oc2ncccc2-c2ccnc(N[C@@H]3CNC[C@@H](F)C3)n2)c(F)c1F [Compound 315, 1-(4-Cyclopropylphenyl)-N-(2,3,6-trifluoro-4-((3-(2-(((3S,5S)-5-fluoropiperidin-3-yl)amino)pyrimidin-4-yl)pyridin-2-yl)oxy)phenyl)methanesulfonamide]	0.23
CCCS(=O)(=O)Nc1cc(C)c(Oc2ncccc2-c2ccnc(N[C@H]3CCCNC3)n2)cc1C [Compound 124, (S)-N-(2,5-Dimethyl-4-((3-(2-(piperidin-3-ylamino)pyrimidin-4-yl)pyridin-2-yl)oxy)phenyl)propane-1-sulfonamide]	210
CN(C)CCNc1nccc(-c2cccnc2Oc2ccc(NS(=O)(=O)Cc3ccccc3)c(F)c2F)n1 [Compound 184, N-(4-((3-(2-((2-(dimethylamino)ethyl)amino)pyrimidin-4-yl)pyridin-2-yl)oxy)-2,3-difluorophenyl)-1-phenylmethanesulfonamide]	57
O=S(=O)(Cc1ccccc1)Nc1c(F)cc(Oc2ncccc2-c2ccnc(NC3CNCC4(C3)CC4(F)F)n2)c(F)c1F (single isomer, unassigned) [Compound 300, N-(4-((3-(2-((1,1-Difluoro-5-azaspiro[2.5]octan-7-yl)amino)pyrimidin-4-yl)pyridin-2-yl)oxy)-2,3,6-trifluorophenyl)-1-phenylmethanesulfonamide]	8.7
O=S(=O)(Cc1ccccc1F)Nc1c(Cl)cc(Oc2ncccc2-c2ccnc(N[C@@H]3CNC[C@@H](F)C3)n2)c(F)c1F [Compound 323, N-(6-Chloro-2,3-difluoro-4-((3-(2-(((3S,5S)-5-fluoropiperidin-3-yl)amino)pyrimidin-4-yl)pyridin-2-yl)oxy)phenyl)-1-(2-fluorophenyl)methanesulfonamide]	0.33
O=S(=O)(CC1CCC1)Nc1ccc(Oc2ncccc2-c2ccnc(N[C@H]3CCCNC3)n2)c(F)c1F [Compound 173, (S)-1-cyclobutyl-N-(2,3-difluoro-4-((3-(2-(piperidin-3-ylamino)pyrimidin-4-yl)pyridin-2-yl)oxy)phenyl)methanesulfonamide]	8.3
Cc1cc(CS(=O)(=O)Nc2c(F)cc(Oc3ncccc3-c3ccnc(N[C@@H]4CNC[C@@H](F)C4)n3)c(F)c2F)no1 [Compound 204, 1-(5-methylisoxazol-3-yl)-N-(2,3,6-trifluoro-4-((3-(2-(((3S,5S)-5-fluoropiperidin-3-yl)amino)pyrimidin-4-yl)pyridin-2-yl)oxy)phenyl)methanesulfonamide]	4.1
O=S(=O)(Cc1ccccc1)Nc1ccc(Oc2ncccc2-c2ccnc(N[C@H]3CCCNC3)n2)cc1F [Compound 106, (S)-N-(2-fluoro-4-((3-(2-(piperidin-3-ylamino)pyrimidin-4-yl)pyridin-2-yl)oxy)phenyl)-1-phenylmethanesulfonamide hydrochloride]	5.7
C[C@@]1(F)CNC[C@@H](Nc2nccc(-c3cccnc3Oc3cc(F)c(NS(=O)(=O)Cc4ccccc4F)c(F)c3F)n2)C1 [Compound 275, 1-(2-Fluorophenyl)-N-(2,3,6-trifluoro-4-((3-(2-(((3S,5S)-5-fluoro-5-methylpiperidin-3-yl)amino)pyrimidin-4-yl)pyridin-2-yl)oxy)phenyl)methanesulfonamide]	0.23
Cc1cc(NS(=O)(=O)c2ccccc2Cl)cc(C)c1Oc1ncccc1-c1ccnc(N[C@H]2CCCNC2)n1 [Compound 131, (S)-2-Chloro-N-(3,5-dimethyl-4-((3-(2-(piperidin-3-ylamino)pyrimidin-4-yl)pyridin-2-yl)oxy)phenyl)benzenesulfonamide hydrochloride]	59
O=C(Nc1ccc(Oc2ncccc2-c2ccnc(N[C@H]3CCCNC3)n2)c(F)c1F)C1CC12CC2 (single isomer, unassigned) [Compound 150, hydrochloride]	300
O=S(=O)(Nc1c(F)cc(Oc2ncccc2-c2ccnc(N[C@@H]3CNC[C@@H](F)C3)n2)c(F)c1F)N1CCCCC1 [Compound 263, N-(2,3,6-Trifluoro-4-((3-(2-(((3S,5S)-5-fluoropiperidin-3-yl)amino)pyrimidin-4-yl)pyridin-2-yl)oxy)phenyl)piperidine-1-sulfonamide]	1.5
COCC1CNCC(Nc2nccc(-c3cccnc3Oc3cc(F)c(NS(=O)(=O)Cc4ccccc4)c(F)c3F)n2)C1 (single isomer, unassigned) [Compound 331, 1-Phenyl-N-(2,3,6-trifluoro-4-((3-(2-((5-(methoxymethyl)piperidin-3-yl)amino)pyrimidin-4-yl)pyridin-2-yl)oxy)phenyl)methanesulfonamide]	0.82
O=S(=O)(Cc1ccccc1F)Nc1cc(Cl)c(Oc2ncccc2-c2ccnc(N[C@@H]3CNC[C@@H](F)C3)n2)c(F)c1F [Compound 340, N-(5-Chloro-2,3-difluoro-4-((3-(2-(((3S,5S)-5-fluoropiperidin-3-yl)amino)pyrimidin-4-yl)pyridin-2-yl)oxy)phenyl)-1-(2-fluorophenyl)methanesulfonamide]	7.5

Reference: patent US12071425B2 (Genentech, Inc., priority 2018, dated 2024)
